Assay results reported in patent US20220356163A1, “SMALL MOLECULE INHIBITORS OF Id PROTEINS” (MEMORIAL SLOAN KETTERING CANCER CENTER, priority 2019, published 2022).
Entries after “also recorded” stand apart in the source; their conditions may differ.

Key:
BT-474 = assay: MTT assay, BT-474; type: cell-based; parameters: scale not given here; details: BT-474, HER-2 +ve cell line, 24 hours
Source text: The 4T1 murine mammary tumor cell line and nine breast cancer cell lines representing the major breast cancer subtypes (ER+, HER2+, and TNBC) including MDA-MB-157, MDA-MB-436, MDA-MB-231, MDA-MB-453, MDA-MB-361, BT-474, SK-BR-3, MCF-7 and T47-D will be grown in RPMI or DMEM (Dulbecco's Modified Eagle Medium) media supplemented with 10% FBS (fetal bovine serum), 1% penicillin-streptomycin and 1% L-Glutamine. Patient derived xenograft cell lines BR7, BR11, and IBT will be established directly from breast cancer bone metastases specimens surgically resected from patients with informed consent. BR7 and BR11 specimens will be obtained from ER positive (HER2 negative and PR negative) metastatic breast cancer patients, while the IBT specimen will be obtained from a metastatic, triple negative breast cancer patient. Fresh tumor tissues will be quickly washed with ice cold PBS and minced into about 1-3 mm pieces in MEM medium (without FBS) using sterile razor blades. […] The cells will be treated with either 100 μM DMSO, AGX51, or a compound of the present technology such as AGX-A. The cell morphology and growth will be monitored daily for 1 week by microscopy for changes in morphology or cell death. […] Absorbance will then measured at 570 nm using a plate reader (Synergy 2, BioTek). […]

colon tumors = assay: Azoxymethane (AOM) colon tumor model; type: in vivo, mouse; details: 15 mg/kg i.p. for three weeks
Description: Spontaneous colon tumors will be induced by treating 30, 4-week old male A/J mice (Jackson Laboratory) with AOM (10 mg/kg; Sigma Aldrich) once a week by i.p. injection for 6 weeks. Mice will be maintained on AIN-93G purified diet (Research Diets) for the duration of the experiment. After a three-week treatment break mice will be treated i.p. for three weeks with DMSO, AGX51 (15 mg/kg) or a compound of the present technology (e.g., AGX-A; 15 mg/kg). Following the last injection, the mice will be euthanized and colon tumors will be formalin fixed to assess tumor burden. Tumor numbers and size will be determined in whole mounts of the tissues following methylene blue staining. For aid in future comparison with a compound of the present technology, the study was initially performed with DMSO and AGX51 where exemplary data of effects of AGX51 on sporadic tumor is shown FIGS. 35A-35D.

Id proteins = assay: Western blot for Id1 in HCT116 and 4T1 cells (FIGS. 7C-7D); type: cell-based; details: 24 hours
Description: The IC50 is indicated. […] The IC50 is indicated. […] Laser-induced choroidal neovascularization (NV) was induced in mice and they were treated by intravitreal injection with DMSO, 1 or 5 μg AGX-A, or 1 or 5 μg AGX51. On day 14 the animals were euthanized and area of CNV was measured (** indicates p<0.01, *** indicates p<0.0001 by ANOVA, error bars show SEM).
Immunoblotting. For immunoblotting, cells were collected by trypsinization, washed with PBS and lysed in homogenization buffer (0.3 M sucrose, 10 mM Tris (pH 8.0), 400 mM sodium chloride, 3 mM magnesium chloride, 0.5% NP40/IGEPAL, 100 μg/mL Aprotinin+Protease inhibitor cocktail (Roche #11 836 153 001). Proteins were separated by SDS-PAGE, transferred to a membrane (LI-COR), probed with primary antibodies overnight at 4° C., and probed with secondary antibodies (LI-COR) for 1-2 hours at room temperature. Proteins were visualized using the LI-COR Odyssey Infrared Imaging detection system. The following primary antibodies were used Id1, Id2, Id3, Id4 (195-14, 9-2-8, 17-3, 82-12, respectively, all from Biocheck), Cyclin D1 (2978, Cell Signaling), Actin (A2066, Sigma), Tubulin (T4026, Sigma). Western blot quantification was carried out using channel 700 and channel 800 intensity data from Odyssey application software version 3.0.30 (LI-COR), subtracting blank values and normalizing to Tubulin.

| Compound | percentage at 60 μM (IC50 NA) (BT-474) | number of colon tumors (colon tumors; p=0.008) | colon tumor size vs DMSO group (colon tumors; significant for tumors >3 mm (p=0.004)) | Id protein levels in cells, concentration needed relative to AGX51 (Id proteins) |
| --- | --- | --- | --- | --- |
| CCC(=O)N(CCC(c1ccc2c(c1)OCO2)c1ccccc1OC)Cc1ccccc1 (racemic) [AGX51, N-(3-(benzo[d][1,3]dioxol-5-yl)-3-(2-methoxyphenyl)propyl)-N-benzylpropionamide] | NA (60 μM = 53%) | significant decrease in the number of colon tumors | smaller than those in the DMSO group | – |
| COc1ccccc1C(CCNCc1ccccc1)c1ccc(OC(C)C)cc1 (stereo not shown) [AGX-A, N-benzyl-3-(4-isopropoxyphenyl)-3-(2-methoxyphenyl)propan-1-anine] | – | – | – | reduced Id protein levels at lower concentrations than AGX51; also recorded: degraded Id proteins in cells at lower concentrations than AGX51 |
